Where two headings read alike, the source gives them in different places.
Key:
[1] = target: T1, HIV-1 RT enzyme (wild type) (Human immunodeficiency virus type 1 group M subtype B, UniProt P04585); assay: Reverse transcriptase (RT) enzymatic assay (IC50), PicoGreen fluorescence, wild type; type: biochemical
T1 construct: The reverse transcriptase (RT) enzyme assay has been adapted to a 96-well microtiter plate format
Summary of the method: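 Enzyme at ≈10 nM in 50 mM Tris/HCl pH 7.8 with 60 mM NaCl, 2 mM MgCl2, 6 mM DTT, 2 mM GSH, 0.02% Chaps; 15 min preincubation with compound at room temperature, then substrate added and run 50 min at 37 °C. EDTA quench; product DNA read by PicoGreen fluorescence.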

[2] = target: T2, HIV-1 RT resistant mutant K103N/Y181C (Human immunodeficiency virus type 1 group M subtype B, UniProt P04585, K690N/Y768C); assay: Reverse transcriptase (RT) enzymatic assay (IC50), PicoGreen fluorescence, resistant mutant; type: biochemical
T2 construct: The reverse transcriptase (RT) enzyme assay has been adapted to a 96-well microtiter plate format

HIV-1 (wild type) = assay: P24 cellular assay (EC50), data identified with * in Table 9, wild type; type: cell-based
From the text: (§1) P24 Cellular Assay (EC50) (Data Identified with * in Table 9).
(§2) The p24 assay is as described in WO 01/96338, the contents of which are herein incorporated by reference.
(§3) The results are listed in Table 9 as IC50(nM) and EC50 (nM).
(§4) Table legend: A=>100; B=100-50; C=<50; NT=not tested

[3] = tested on: HIV-1 resistant mutant K103N/Y181C; assay: P24 cellular assay (EC50), data identified with * in Table 9, resistant mutant; type: cell-based; details: Human immunodeficiency virus 1, read-out: EC50 K103N/Y181C
From the text: as §1, §2, §3, §4

[4] = tested on: HIV-1 (wild type) in C8166 LTRluc cells; assay: C8166 HIV-1 luciferase assay (EC50), wild type; type: cell-based; details: Human immunodeficiency virus 1, C8166 HIV-1 luciferase assay (no *)
Summary of the method: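 C8166 cells carrying an HIV-1 LTR-driven luciferase reporter, infected at moi 0.005 for 1.5 h, then cultured 3 days at 37 °C with 11-point 2.5-fold inhibitor dilutions (≤0.1% DMSO) in triplicate, 25,000 cells/well. Luminescence gives % inhibition; EC50, slope and Imax from non-linear regression.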

[5] = tested on: HIV-1 resistant mutant K103N/Y181C in C8166 LTRluc cells; assay: C8166 HIV-1 luciferase assay (EC50), resistant mutant; type: cell-based; details: Human immunodeficiency virus 1, C8166, read-out: EC50 K103N/Y181C
[6] = RT enzymatic assay, wild type, read-out: IC50 WT

Structure (SMILES)	IC50 [1] [nM]	IC50 [2] [nM]	EC50 (HIV-1 (wild type); Human immunodeficiency virus 1) [nM]	EC50 [3] [nM]	IC50 [1, 6] [nM]	EC50 (HIV-1 (wild type)) [nM]	EC50 [4] [nM]	EC50 [5] [nM]
COc1ccc(Cl)cc1-n1nnnc1SCC(=O)Nc1ccccc1[N+](=O)[O-] [Entry 136]	50 to 100	> 100	< 50	> 100	–	–	–	–
COc1ccccc1-n1nnnc1SCC(=O)Nc1ccccc1[N+](=O)[O-] [Entry 115]	50 to 100	> 100	< 50	> 100	–	–	–	–
CSc1ccccc1-n1nnnc1SCC(=O)Nc1ccccc1[N+](=O)[O-] [Entry 116]	< 50	> 100	< 50	–	–	–	–	–
COC(=O)c1ccccc1-n1nnnc1SCC(=O)Nc1ccccc1[N+](=O)[O-] [Entry 117]	–	> 100	–	> 100	< 50	–	–	–
S=C(CSc1nnnn1-c1cccc2ccccc12)Nc1ccccc1Cl [Entry 308]	> 100	–	50 to 100	–	–	–	–	–
Cc1cccc(Cl)c1-n1nnnc1SCC(=O)Nc1ccccc1[N+](=O)[O-] [Entry 139]	< 50	> 100	< 50	–	–	–	–	–
O=C(CSc1nc(-c2cccc3ccccc23)c[nH]1)Nc1ccccc1[N+](=O)[O-] [Entry 401, 2-{{4-(1-Naphthalenyl)-1H-imidazol-2-yl}thio}-N-(2-nitrophenyl)acetamide]	–	–	–	–	–	< 50	–	–
O=C(COc1ccccc1-c1cccc2ccccc12)Nc1ccccc1[N+](=O)[O-] [Entry 409]	–	–	> 100	–	> 100	–	–	–
COC(=O)c1ccc(NC(=O)CSc2nnnn2-c2cccc3ccccc23)c(Cl)c1 [Entry 235]	< 50	> 100	< 50	–	–	–	–	–
O=C(CSc1nnnn1-c1cccc2ccccc12)Nc1ccccc1I [Entry 210]	50 to 100	–	< 50	> 100	–	–	–	–
O=C(CSc1nnnn1-c1cccc2ccccc12)Nc1ccccc1Br [Entry 209]	< 50	–	> 100	–	–	–	–	–
Cc1ccc(-n2nnnc2SCC(=O)Nc2ccccc2[N+](=O)[O-])c(Br)c1 [Entry 130]	< 50	> 100	< 50	–	–	–	–	–
Clc1ccccc1[C@@H]1C[C@H]1CSc1nnnn1-c1cccc2ccccc12 (relative stereo) [Entry 316, trans-5-{{{2-(2-Chlorophenyl)cyclopropyl}methyl}thio}-1-(1-naphthalenyl)-1H-tetrazole]	50 to 100	> 100	< 50	–	–	–	–	–
OC(CSc1nnnn1-c1cccc2ccccc12)Cc1ccccc1Cl (centres unmarked) [Entry 318, 5-{{3-(2-Chlorophenyl)-2-hydroxypropyl}thio}-1-(1-naphthalenyl)-1H-tetrazole]	50 to 100	> 100	< 50	–	–	–	–	–
OC(CCSc1nnnn1-c1cccc2ccccc12)c1ccccc1Cl (centres unmarked) [Entry 317, 5-{{3-(2-Chlorophenyl)-3-hydroxypropyl}thio}-1-(1-naphthalenyl)-1H-tetrazole]	50 to 100	> 100	< 50	–	–	–	–	–
O=C(CSc1nnnn1-c1cccc2ccccc12)Nc1ccc(Cl)cc1Cl [Entry 234]	50 to 100	–	50 to 100	> 100	–	–	–	–
O=C(CSc1nnnn1-c1cccc(Cl)c1Cl)Nc1ccccc1[N+](=O)[O-] [Entry 123]	–	> 100	–	50 to 100	< 50	–	–	–
O=C(COc1nnnn1-c1cccc2ccccc12)Nc1ccccc1[N+](=O)[O-] [Entry 302]	–	–	50 to 100	–	–	–	–	–
O=C(CSc1nnnn1-c1cccc2ccccc12)Nc1ccccc1[N+](=O)[O-] [Entry 101, 2-{{1-(1-Naphthalenyl)-1H-tetrazol-5-yl}thio}-N-(2-nitrophenyl)acetamide]	–	–	< 50	> 100	–	–	–	–

Structure (SMILES)	IC50 [1] [nM]	IC50 [2] [nM]	EC50 (HIV-1 (wild type); Human immunodeficiency virus 1) [nM]	EC50 [3] [nM]	IC50 [1, 6] [nM]	EC50 (HIV-1 (wild type)) [nM]	EC50 [4] [nM]	EC50 [5] [nM]
CC(C)(C)c1ccc(-n2nnnc2SCC(=O)Nc2ccc(N3CCOCC3)cc2Cl)c(Cl)c1 [Entry 611]	–	> 100	–	–	< 50	–	< 50	> 100
CC(C)(C)c1ccc(-n2nnnc2SCC(=O)Nc2ccncc2Cl)c(Cl)c1 [Entry 801]	–	< 50	–	–	< 50	–	< 50	< 50
O=C(CSc1nnnn1-c1cccc2ccccc12)Nc1cccc(F)c1F [Entry 230]	50 to 100	–	50 to 100	> 100	–	–	–	–
OC(CNc1ccccc1Cl)CSc1nnnn1-c1cccc2ccccc12 (centres unmarked) [Entry 330, 5-{{3-{(2-Chlorophenyl)amino}-2-hydroxypropyl}thio}-1-(1-naphthalenyl)-1H-tetrazole]	50 to 100	> 100	< 50	–	–	–	–	–
O=C(CSc1nnnn1-c1ccc(I)cc1Cl)Nc1ccccc1Cl [Entry 706]	–	> 100	–	–	< 50	–	< 50	> 100
CC(C)(C)c1ccc(-n2nnnc2SCC(=O)Nc2ccc(S(=O)(=O)c3ccc(Cl)cc3)cc2Cl)c(Cl)c1 [Entry 605]	–	> 100	–	–	< 50	–	50 to 100	> 100
CC(C)(C)OC(=O)N1CCN(c2ccc(NC(=O)CSc3nnnn3-c3ccc(C(C)(C)C)cc3Cl)c(Cl)c2)CC1 [Entry 614]	–	> 100	–	–	< 50	–	< 50	> 100
Cc1nnc(SCC(=O)Nc2ccc(S(C)(=O)=O)cc2Cl)n1-c1ccc(C(C)(C)C)cc1Cl [Entry 431]	–	50 to 100	–	–	< 50	–	< 50	< 50
O=C(CSc1nnnn1-c1cccc2ccccc12)Nc1ccc(O)cc1Cl [Entry 246]	–	> 100	–	–	< 50	–	< 50	> 100
Cc1ccc(-n2nnnc2SCC(=O)Nc2ccc(C(=O)O)cc2Br)c(Cl)c1 [Entry 505]	–	> 100	–	–	< 50	–	< 50	> 100
Cc1ccc(-n2nnnc2SCC(=O)Nc2ccc(C(=O)O)cc2[N+](=O)[O-])c(Cl)c1 [Entry 507]	–	> 100	–	–	< 50	–	< 50	> 100
CC(C)(C)c1ccc(-n2nnnc2SCC(=O)Nc2ccc(C(=O)O)cc2Cl)c(Cl)c1 [Entry 616]	–	50 to 100	–	–	< 50	–	< 50	< 50
Cc1cc(C)c(-n2nnnc2SCC(=O)Nc2ccccc2[N+](=O)[O-])c(Br)c1 [Entry 147]	–	> 100	–	–	< 50	–	< 50	50 to 100
Cc1ccc(-c2ccccc2SCC(=O)Nc2ccccc2[N+](=O)[O-])c(Cl)c1 [Entry 417]	–	> 100	–	–	< 50	–	< 50	> 100
O=C(CSc1nnnn1-c1ccccc1F)Nc1ccccc1[N+](=O)[O-] [Entry 113]	< 50	> 100	< 50	–	–	–	–	–
CN(C)c1ccc(-n2nnnc2SCC(=O)Nc2ccccc2[N+](=O)[O-])c2ccccc12 [Entry 102]	< 50	> 100	< 50	–	–	–	–	–
CCN(CC)c1ccc(-n2nnnc2SCC(=O)Nc2ccccc2Cl)c(Cl)c1 [Entry 705]	–	> 100	–	–	< 50	–	< 50	> 100
Cc1ccc(-n2nnnc2SCC(=O)Nc2ccc(C(N)=O)cc2[N+](=O)[O-])c(Cl)c1 [Entry 508]	–	50 to 100	–	–	< 50	–	< 50	< 50

— patent US7642277B2, “Non-nucleoside reverse transcriptase inhibitors” (Boehringer Ingelheim International GmbH, priority 2002, dated 2010)
